Experiments:
[1] = test system: human lung cancer LU-01-0393 subcutaneous xenograft tumor; assay: In vivo drug efficacy study (II): human lung cancer LU-01-0393 subcutaneous xenograft tumor model; design: species or system BALB/c nude mice; details: 45 mg/kg PO QD × 3W
Excerpt: Cell line-derived xenograft (CDX) BALB/c nude mice that were female, 6- to 8-week old, weighed 17 to 20 g, and subcutaneously implanted with human tumor cell line derived from LU-01-0393 lung cancer patient were used. A total of 72 mice were needed and were purchased from Shanghai Xipuer-Bikai Experimental Animal Co., Ltd. Human lung cancer LU-01-0393 tumor (i.e., non-small cell lung cancer) was originally derived from a clinical sample of a surgical resection. It was defined as passage PO after being inoculated to nude mice, and the tumor of passage PO was re-inoculated to nude mice and was then defined as passage P1, and so forth. Passage was performed in nude mice. LU-01-0393-FP5 was obtained from the transplantation after the recovery of P4. This study would use the tumor tissue of passage FP6.
BALB/c nude mice that were female, 6- to 8-week old, and weighed approximately 17 to 20 g were used. The mice were maintained in separate ventilated cages in a special pathogen-free environment. All the cages, bedding and water were disinfected prior to use. All the animals were free to access a standard certified commercial laboratory diet. A total of 72 mice purchased from Shanghai Xipuer-Bikai Experimental Animal Co., Ltd. were used for the study. The LU-01-0393 FP6 tumor tissue was cut to 20 to 30 mm^3 and inoculated to the right back of each mouse to wait for the tumor growth. When the average tumor volume reached about 171 mm^3, the mice were randomized into groups and administered. The test compounds were orally administered daily, and the administration dosages were as shown in the above table. The tumor diameters were measured twice a week using a two-dimensional caliper. The tumor volumes were calculated by the following formula: V=0.5 a×b^2, wherein a and b were the long diameter and the short diameter of a tumor, respectively. The anti-tumor efficacy was determined by dividing the average increase of the tumor volumes of the animals treated with a compound by the average increase of the tumor volumes of the animals without being treated with the compound.

[2] = Solubility study at different pHs; type: physicochemical; details: 37° C.; for solubility at 4 h / solubility at 24 h: thermodynamic from solid; for Solubility 4 hrs / Solubility (24 hrs): LOQ = 0.0003 mg/mL
Description: A magnet was added to the above suspension, which was placed on a magnetic stirrer for stirring (temperature 37° C., dark). After respectively stirring for 4 hours and 24 hours, samples were taken and centrifuged, and the residual solids in the lower layers were tested by XRPD. The samples in the upper layers were filtered with a filtration membrane. The concentrations of the filtrates were determined by HPLC and the pHs were measured. After the HPLC system was equilibrated with a mobile phase, the analysis of the samples started.

[3] = Solubility tests in different vehicles (HPLC); type: physicochemical; details: 26 °C, thermodynamic from solid, room temperature 25 to 27° C.
Description: Samples (about 2 mg) (if the sample was a salt, the required amount of the salt was calculated according to the salt factor in accordance with the criterion that the compound of formula (I) was 2 mg) were weighed respectively and added to a 1.5 mL glass vial. Different vehicles (1 mL) were then added respectively. The above-mentioned suspension was placed on a magnetic stirrer for stirring (room temperature 25 to 27° C.). After stirring for 24 hours, samples were taken. The samples were first centrifuged, and the supernatants were taken. After appropriate dilution according to the situation of the dissolution, the concentrations were determined by HPLC. The results were as follows:
Notes: • FaSSIF: to simulate the intestinal fluid in the small intestine of human in a hunger state before meal; • FeSSIF: to simulate the intestinal fluid in the small intestine of human in a full state after meal; • SGF: to simulate the gastric juice in the empty stomach of human in a hunger state

[4] = Study on the polymorphs of compound WX_1 (XRPD after treatment in solvents); type: physicochemical
Excerpt: The solution was centrifuged to obtain a precipitate, which was dried and then subjected to an XRPD detection.

[5] = test system: MCF-7 breast cancer cells; assay: Inhibition assay of the A crystal form of WX_1 on MCF-7 breast cancer cell proliferation (CellTiter-Glo); type: cell-based; details: Homo sapiens, MCF7, 144 h; MCF-7 cells, 6 days
Description: RPMI 1640 medium, fetal bovine serum and penicillin/streptomycin as antibiotics were purchased from Promega (Madison, Wis.). The MCF-7 cell line was purchased from the European Collection of Authenticated Cell Cultures (ECACC). Envision MultiLabel Plate Reader (PerkinElmer).
MCF-7 cells were seeded in a black 384-well plate with 45 μL of cell suspension (containing 200 MCF-7 cells) per well. The cell plate was placed in a carbon dioxide incubator for overnight culture.
The test compounds were diluted 3 times to the 10th concentration with Bravo, i.e., diluted from 10 μM to 0.508 nM, and a duplicate-well experiment was set. The medium was added to the middle plate in an amount of 49 μL per well. The gradient-diluted compounds were transferred in an amount of 1 μL per well to the middle plate according to the corresponding positions, and the mixture was mixed evenly and transferred to the cell plate in an amount of 5 μL per well. The cell plate was incubated in a carbon dioxide incubator for 6 days.
Promega CellTiter-Glo reagent was added to the cell plate in an amount of […] per well, and incubated for 10 minutes at room temperature to stabilize the luminescence signal. Reading was performed using a PerkinElmer Envision Multilabel Plate Reader.

CDK6/cyclin D1 = CDK6/cyclin D1 (Homo sapiens (Human), UniProt Q00534); assay: CDK6/cyclin D1 enzymatic activity (Lance Ultra); type: biochemical; details: 180 minutes
Sequence of CDK6/cyclin D1 (Q00534 whole entry): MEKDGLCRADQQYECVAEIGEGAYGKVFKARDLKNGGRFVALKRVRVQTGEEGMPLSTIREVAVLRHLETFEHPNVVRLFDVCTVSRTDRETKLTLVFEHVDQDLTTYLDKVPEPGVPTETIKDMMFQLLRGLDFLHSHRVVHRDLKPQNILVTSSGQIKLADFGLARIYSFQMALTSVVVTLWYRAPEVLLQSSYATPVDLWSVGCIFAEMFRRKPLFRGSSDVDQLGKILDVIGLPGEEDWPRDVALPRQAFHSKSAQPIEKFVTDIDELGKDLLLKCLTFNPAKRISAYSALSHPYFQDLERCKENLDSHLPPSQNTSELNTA
Sequence of CDK6/cyclin D1 (P24385 whole entry partner): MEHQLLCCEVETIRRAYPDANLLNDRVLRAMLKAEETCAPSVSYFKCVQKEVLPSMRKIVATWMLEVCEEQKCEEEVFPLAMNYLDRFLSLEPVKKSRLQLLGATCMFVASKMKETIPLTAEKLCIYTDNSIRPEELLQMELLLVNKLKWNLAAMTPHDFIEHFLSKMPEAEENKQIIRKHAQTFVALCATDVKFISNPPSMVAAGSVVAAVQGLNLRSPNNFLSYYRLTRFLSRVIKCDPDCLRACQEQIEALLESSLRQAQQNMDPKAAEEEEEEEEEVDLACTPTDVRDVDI
Description: The components of the buffer included 50 mM hydroxyethylpiperazine ethanesulfonic acid solution (pH 7.5), 1 mM ethylenediaminetetraacetic acid, 10 mM magnesium chloride, 0.01% Brij-35, and 2 mM dithiothreitol.

[6] = aqueous buffer, pH 3.8 buffer (pH 3.80)
[7] = aqueous buffer, pH 4.5 buffer (pH 4.48)
[8] = aqueous buffer, pH 5.5 buffer (pH 5.52)
[9] = aqueous buffer, pH 6.0 buffer (pH 6.04)
[10] = simulated gastric fluid, 0.01N HCl (pH 1.99)
[11] = simulated gastric fluid, 0.1N HCl (pH 1.00)

With `CC(C)c1c2cc(-c3nc(Nc4ccc(N5CCNCC5)cn4)ncc3F)ccc2nn1C.O=C(O)/C=C\C(=O)O` [A crystal form of compound WX_1] the “Tumor volume Day 0” value ([1]; Day 0) was 171 ± 26 mm^3, the “Tumor volume Day 7” value ([1]; Day 7) was 172 ± 33 mm^3 and the “Tumor volume Day 14” value ([1]; Day 14) was 150 ± 29 mm^3. The “Tumor volume Day 21” value ([1]; Day 21) was 175 ± 42 mm^3, the “Description of Solubility” value ([2]; 0.01N HCl (pH 1.99)) was “slightly soluble” and the “Description of Solubility” value ([2]; 0.1N HCl (pH 1.00)) was “slightly soluble”. For the same compound, the solubility at 4 h [2, 6] was greater than 2500 µg/mL, the solubility at 24 h [2, 6] was greater than 2500 µg/mL and the solubility at 4 h [2, 7] was greater than 2500 µg/mL. The solubility at 24 h [2, 7] was greater than 2500 µg/mL, the solubility at 4 h [2, 8] was 110 µg/mL and the solubility at 24 h [2, 8] was 138 µg/mL. The solubility at 4 h [2, 9] was 2 µg/mL, the solubility at 24 h [2, 9] was 2 µg/mL and the “Description of Solubility” value ([2]; pH 3.8 buffer (pH 3.80)) was “slightly soluble”. The “Description of Solubility” value ([2]; pH 4.5 buffer (pH 4.48)) was “slightly soluble”, the “Description of Solubility” value ([2]; pH 5.5 buffer (pH 5.52)) was “sparingly soluble” and the “Description of Solubility” value ([2]; pH 6.0 buffer (pH 6.04)) was “practically insoluble”. The “Description of Solubility” value ([2]; pH 6.8 buffer (pH 6.80)) was “practically insoluble”, the “Solubility 4 hrs” value ([2]; pH 6.8 buffer (pH 6.80)) was “<LOQ*” and the “Solubility (24 hrs)” value ([2]; pH 6.8 buffer (pH 6.80)) was “<LOQ”. For the same compound, the “Description of Solubility” value ([2]; pH 7.4 buffer (pH 7.39)) was “practically insoluble”, the “Solubility 4 hrs” value ([2]; pH 7.4 buffer (pH 7.39)) was “<LOQ” and the “Solubility (24 hrs)” value ([2]; pH 7.4 buffer (pH 7.39)) was “<LOQ”. For the same compound, the “Description of Solubility” value ([2]; purified water (pH 6.05)) was “slightly soluble”, the solubility at 4 h [2, 10] was greater than 2500 µg/mL and the solubility at 24 h [2, 10] was greater than 2500 µg/mL. For the same compound, the solubility at 4 h [2, 11] was greater than 2500 µg/mL, the solubility at 24 h [2, 11] was greater than 2500 µg/mL and the solubility at 4 h ([2]; purified water (pH 6.05)) was 1110 µg/mL. For the same compound, the solubility at 24 h ([2]; purified water (pH 6.05)) was 1220 µg/mL, the solubility at 24 h ([3]; simulated gastric fluid, SGF, read-out: Solubility SGF) was greater than 2000 µg/mL and the solubility at 24 h ([3]; FaSSIF, read-out: Solubility FaSSIF) was 23 µg/mL. The solubility at 24 h ([3]; FeSSIF, read-out: Solubility FeSSIF) was 1600 µg/mL, the solubility at 24 h ([3]; water, water, H2O, read-out: Solubility H2O) was 1140 µg/mL and the Crystal form ([4]; acetone, 40° C. in the dark for 2 days) was “A crystal form”. The Crystal form ([4]; acetone-water (1:2), Volatilization of supernatant) was “amorphous (Volatilization)”, the Crystal form ([4]; ethanol, 40° C. in the dark for 2 days) was “A crystal form” and the Crystal form ([4]; ethanol-water (3:1), Volatilization of supernatant) was “amorphous (Volatilization)”. For the same compound, the Crystal form ([4]; ethyl acetate, 40° C. in the dark for 2 days) was “A crystal form”, the Crystal form ([4]; isopropanol, 40° C. in the dark for 2 days) was “A crystal form” and the Crystal form ([4]; isopropanol-water (1:1), Volatilization of supernatant) was “A crystal form”. For the same compound, the Crystal form ([4]; methanol, 40° C. in the dark for 2 days) was “A crystal form”, the Crystal form ([4]; methanol-water (3:1), 40° C. in the dark for 2 days) was “A crystal form” and the IC50 [5] was 70 nM. For the same compound, the IC50 (CDK6/cyclin D1) was less than 0.8 nM.
